In patent US8653285B2 (Nippon Zoki Pharmaceutical Co., Ltd., priority 2008, dated 2014) one finds IC50, ED50 and ID50 data, which are given here for 22 compounds.

Assay [1] has as its target human histamine H1 receptor (Homo sapiens, UniProt P35367). The assay can be described thus: In vitro human histamine H1 receptor binding experiment ([3H]pyrilamine, HEK293A cells stably expressing the receptor). The conditions noted are these: [3H]pyrilamine 3 nmol/L, room temperature 60 minutes. The procedure: Recombinant human histamine H1 receptor plasmid (prepared by Invitrogen) was transfected to HEK293A cells with Lipofectamine 2000 (Invitrogen). Cells stably expressing human histamine H1 receptor were screened with Geneticin (Invitrogen). The cells were continued to be cultured using a Dulbecco's Modified Eagle Medium containing 10% fetal bovine serum, 0.1 mmol/L MEM Non-Essential Amino Acids Solution, 2 mmol/L L-glutamine and 0.7 mg/mL Geneticin in a 5% CO2 incubator at 37° C. The cells stably expressing human histamine H1 receptor were prepared using 50 mmol/L Tris-HCl (pH 7.5) (hereinafter referred to as buffer) containing 0.1% bovine serum albumin, so as to have a concentration of 3×10^6 cells/mL, to give a cell sample preparation. Fifty microliters of the buffer, 50 μL of a test substance solution at various concentrations, and 50 μL of [^3H]pyrilamine solution (final concentration: 3 nmol/L) were added to each of the wells on the 96-well plate, and stirred, and 100 μL of the cell sample preparation was then added thereto (at a concentration of 3×10^5 cells/well) to initiate the reaction.
The cells were incubated at room temperature for 60 minutes, and then filtered on UniFilter GF/C plate (Packard) immersed in 0.5% polyethyleneimine using a cell harvester (IH-110, INNOTECH CORPORATION), to stop the reaction, and the plate was washed with the buffer. The plate after washing was sufficiently dried, and 20 μL of a scintillator (MaxiLight, manufactured by Hidex) was added thereto, and count per minute (cpm) was measured with a multi-labeled microplate reader (Plate Chameleo II, Hidex). The nonspecific binding was cpm in a case where 30 μmol/L pyrilamine was added. The experiments were carried out at n=3, and at least repeated 3 times.

The subject of assay [2] is histamine-induced vascular hyperpermeability. The assay can be described thus: Rat histamine-induced vascular hyperpermeability reaction (in vivo antihistamine action). The conditions noted are these: SD male rat, oral administration, histamine injected intracutaneously 1 hour after administration, leaked Evans Blue. The procedure:
An SD male rat (SPF) of 180 g in weight was previously fed for one week or more by allowing the rat to take a solid feed and tap water ad libitum, under the environment setting of a temperature of 22° C., humidity of 55% and an artificial illumination of 12 hours a day (light phase 8 am to 8 pm), and the rat was fasted overnight to be used for the experiment. Histamine.dihydrochloride (hereinafter referred to as histamine) and Evans Blue were used by dissolving each in physiological saline upon use. A substance to be tested was dissolved in water for injection or suspended in 0.5% carboxymethyl cellulose sodium, and the rat was orally administered with the solution or suspension (dose volume: 5 mL/kg body weight). After 1 hour from the administration, the physiological saline and the histamine solution were each intracutaneously injected to two locations (20 μg/0.05 ml/location) each on a back part of the rat of which hair was sheared with an electric clipper while anesthetizing with an ether. A 0.5% Evans Blue-containing physiological saline was injected into the tail vein of the rat (1 mL/200 g body weight) immediately before the intracutaneous injection of the histamine.
After 30 minutes, the animal was decapitated, and exsanguinated, and the skin was removed to measure an amount of leaked pigment in the blue-stained portion. The measurement of the amount of leaked pigment was carried out as follows. Skins of the pigment leaking site were cut out at two locations, 1 mL of a 2 mol/L aqueous potassium hydroxide solution was added thereto in a test tube, and the test tube was allowed to stand overnight at 37° C. to dissolve. Thereafter, 6 mL of a 1:3 mixed solution of 0.67 mol/L phosphoric acid and acetone was added to the solution, and the mixture was vigorously shaken for 10 minutes. Thereafter, the mixture was filtered, and the absorbance of the filtrate at 620 nm was measured. The absorbance obtained from the two locations of the sites injected with physiological saline, as blank value, was used for a compensation. The amount of leaked pigment was calculated from the calibration curve of Evans Blue at 620 nm.

In assay [3] the target is T1, cerebral H1 receptor (Mus musculus, UniProt P70174).
T1 construct: The excised brain tissue was homogenized with Polytron (Kinematica); from tissue; host or cells: ICR mouse brain (entire brain except cerebellum and medulla oblongata), homogenate
The assay can be described thus: Murine cerebral H1 receptor occupying content (ex vivo, 3H-pyrilamine binding in brain homogenate after oral administration). As for the experimental part: A 6-week-old ICR male mouse was previously fed for one week or more by allowing the mouse to take a solid feed and tap water ad libitum, under the environment setting of a temperature of 22° C., humidity of 55% and an artificial illumination of 12 hours a day, and the mouse was fasted overnight to be used for the experiment. A substance to be tested was dissolved with water for injection or suspended in 0.5% carboxymethyl cellulose solution, and the solution or suspension was orally administered to the mouse (dose volume: 0.1 mL/10 g body weight). After 1 hour from the oral administration, the mouse was decapitated, and the entire brain, except for cerebellum and medulla oblongatae, was rapidly excised. The excised brain tissue was homogenized with Polytron (Kinematica) in an ice-cooled 50 mmol/L phosphate buffered saline (pH 7.4, 100 mg/1.9 mL).
To a test tube for reaction (TPX-Tube) were added 180 μL of the brain homogenate, and 10 μL of ^3H-pyrilamine solution (final concentration: 2 nmol/L) and 10 μL of a non-labeled pyrilamine solution (final concentration: 200 μmol/L) or a 50 mmol/L phosphate buffered saline, and the mixture was incubated at room temperature for 45 minutes, and 2.0 mL of an ice-cooled, 50 mmol/L phosphate buffered saline was then added thereto to stop the reaction. The reaction mixture was filtered with a GF/B filter ([…]), and the filtrate was placed in a vial and dried overnight at 60 degrees. After drying, 10 mL of a scintillator (AL-1, toluene-based, DOJINDO LABORATORIES) was added to the product, and the disintegration per minute (dpm) was measured with a liquid scintillation counter (Packard, U.S.A., TRI-CARB 2700TR) (5 minutes/vial).

Setting [4] is: ICR male mouse, oral administration, brain excised after 1 hour, larger ID50 = lower brain transfer, read-out: ID50 (the source's name).

Counter-ions that a name gives are not always drawn. Like-named read-outs stand apart in the source and are kept apart here. Bounds are passed on as bounds.

T1 sequence (P70174 whole entry): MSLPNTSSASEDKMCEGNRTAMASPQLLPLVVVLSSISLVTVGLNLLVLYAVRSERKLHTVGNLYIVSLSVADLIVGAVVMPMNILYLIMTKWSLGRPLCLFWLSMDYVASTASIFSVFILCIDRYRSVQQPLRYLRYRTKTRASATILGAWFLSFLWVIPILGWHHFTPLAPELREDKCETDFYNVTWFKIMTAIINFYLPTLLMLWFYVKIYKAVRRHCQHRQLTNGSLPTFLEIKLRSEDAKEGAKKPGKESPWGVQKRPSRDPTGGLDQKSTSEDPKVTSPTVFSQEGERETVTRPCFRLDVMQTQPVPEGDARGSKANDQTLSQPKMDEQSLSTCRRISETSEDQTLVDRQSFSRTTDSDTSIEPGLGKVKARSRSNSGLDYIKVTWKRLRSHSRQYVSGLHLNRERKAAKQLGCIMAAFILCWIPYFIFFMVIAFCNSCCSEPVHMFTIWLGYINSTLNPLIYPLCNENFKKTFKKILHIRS
human histamine H1 receptor, sequence (P35367 whole entry): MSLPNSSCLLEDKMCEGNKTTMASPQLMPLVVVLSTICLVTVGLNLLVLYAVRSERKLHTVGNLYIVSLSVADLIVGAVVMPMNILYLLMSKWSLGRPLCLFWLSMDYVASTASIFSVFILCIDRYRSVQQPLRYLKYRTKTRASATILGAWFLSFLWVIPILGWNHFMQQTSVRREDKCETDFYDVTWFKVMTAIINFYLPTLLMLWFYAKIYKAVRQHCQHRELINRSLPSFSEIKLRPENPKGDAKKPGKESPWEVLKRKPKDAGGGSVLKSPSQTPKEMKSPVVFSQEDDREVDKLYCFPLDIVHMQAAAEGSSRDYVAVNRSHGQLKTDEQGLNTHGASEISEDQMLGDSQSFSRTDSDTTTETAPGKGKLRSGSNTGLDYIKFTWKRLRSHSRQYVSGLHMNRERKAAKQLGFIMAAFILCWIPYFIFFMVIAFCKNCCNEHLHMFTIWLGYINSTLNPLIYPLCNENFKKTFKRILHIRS

What is called IC50 is the concentration that gives 50% inhibition. A low value points to greater potency. As for `CCOC(=O)c1ccc2c(c1)C(=CCCN(C)C)c1sccc1CO2` [Compound 3, Ethyl (E,Z)-4-(3-dimethylaminopropylidene)-4,10-dihydro-9-oxa-3-thiabenzo[f]azulene-6-carboxylate hydrochloride], the IC50 in assay [1] is 22.2 nM.

In assay [1], `CN(C)CCC=C1c2ccccc2CCc2sc(C(=O)NCCO)cc21` [Compound 9, (E,Z)-4-(3-Dimethylaminopropylidene)-9,10-dihydro-4H-1-thiabenzo[f]azulene-2-carboxylic-(2-hydroxyethyl)amide hydrochloride] came in with an IC50 of 55.7 nM.

As to `CCOC(=O)/C=C/c1ccc2c(c1)/C(=C/CCN(C)C)c1sccc1CO2` [Compound 13, Ethyl (E,Z)-3-[4-(3-dimethylaminopropylidene)-4,10-dihydro-9-oxa-3-thiabenzo[f]azulen-6-yl]acrylate hydrochloride], the IC50 in assay [1] stood at 32.4 nM.

In the case of `CN(C)CC/C=C1/c2ccccc2CCc2sc(C(=O)O)cc21` [Compound 16, (Z)-[4-(3-Dimethylaminopropylidene)-9,10-dihydro-4H-1-thiabenzo[f]azulen-2-yl]carboxylic acid], the figures for the ED50 in assay [2] (read-out: ED50) and in assay [3] (setting [4]) were 0.299 mg/kg and 45.8 mg/kg, respectively.

Turning to `CN(C)CC/C=C1/c2ccccc2CCc2sc(CC(=O)O)cc21.Cl` [Compound 18, (Z)-[4-(3-Dimethylaminopropylidene)-9,10-dihydro-4H-1-thiabenzo[f]azulen-2-yl]acetic acid hydrochloride], the ED50 was found to be 0.063 mg/kg in assay [2] (read-out: ED50) and 2.1 mg/kg in assay [3] (mouse, po, 1 h, read-out: ID50).

For `CN(C)CC/C=C1/c2cc(CC(=O)O)ccc2OCc2ccsc21` [Compound 20, (Z)-[4-(3-Dimethylaminopropylidene)-4,10-dihydro-9-oxa-3-thiabenzo[f]azulen-6-yl]acetic acid], the values for the ED50 in assay [2] (read-out: ED50) and in assay [3] (setting [4]) were 0.45 mg/kg and 109 mg/kg, respectively.

In assay [1], `CCOC(=O)C(C)(C)c1ccc2c(c1)C(=CCCN(C)C)c1sccc1CO2` [Compound 21, Ethyl (E,Z)-2-[4-(3-dimethylaminopropylidene)-4,10-dihydro-9-oxa-3-thiabenzo[f]azulen-6-yl]-2-methylpropionate hydrochloride] came in with a concentration for half-maximal inhibition (IC50) of 74.7 nM.

On to `CN(C)CCC=C1c2ccccc2CCc2sc(C(C)(C)C(=O)O)cc21` [Compound 23, (E,Z)-2-[4-(3-Dimethylaminopropylidene)-9,10-dihydro-4H-1-thiabenzo[f]azulen-2-yl]-2-methylpropionic acid], for which the IC50 in assay [1] was found to be 74.6 nM.

The compound `CNCC/C=C1\c2cc(C(C)(C)C(=O)O)ccc2OCc2ccsc21` [Compound 25, (E)-{2-Methyl-2-[4-(3-methylaminopropylidene)-4,10-dihydro-9-oxa-3-thiabenzo [f]azulen-6-yl]}propionic acid] displayed an ED50 in assay [2] of 5.70 mg/kg. The same compound came in with an ID50 in assay [3] (ICR male mouse, oral administration, brain excised after 1 hour, larger ID50 = lower brain transfer) greater than 200 mg/kg.

Regarding `O=C(O)Cc1ccc2c(c1)/C(=C/CCN1CCOCC1)c1sccc1CO2` [Compound 33, (Z)-{4-[3-(Morpholin-4-yl)propylidene]-4,10-dihydro-9-oxa-3-thiabenzo[f]azulen-6-yl}acetic acid], the ED50 is roughly 0.3 mg/kg in assay [2] (read-out: ED50) and 21.1 mg/kg in assay [3] (setting [4]).

On to `CN(CC/C=C1\c2cc(CC(=O)O)ccc2OCc2ccsc21)Cc1ccccc1` [Compound 40], for which, in assay [1], the IC50 is 19.1 nM. This lies in the double-digit nanomolar range.

In assay [1], `O=C(O)Cc1ccc2c(c1)/C(=C\CCNCc1ccccc1)c1sccc1CO2` [Compound 42, (E)-[4-(3-Benzylaminopropylidene)-4,10-dihydro-9-oxa-3-thiabenzo[f]azulen-6-yl]acetic acid] showed an IC50 of 99.8 nM.

Compound `O=C(O)Cc1ccc2c(c1)/C(=C\CCN1CCN(c3ccccc3)CC1)c1sccc1CO2` [Compound 54, (E)-{4-[3-(4-Phenylpiperadin-1-yl)propylidene]-4,10-dihydro-9-oxa-3-thiabenzo[f]azulen-6-yl}acetic acid] gave an IC50 in assay [1] of 10.9 nM.

In turn, `O=C(O)Cc1ccc2c(c1)/C(=C/CCN1CCN(c3ccccc3)CC1)c1sccc1CO2` [Compound 55, (Z)-{4-[3-(4-Phenylpiperadin-1-yl)propylidene]-4,10-dihydro-9-oxa-3-thiabenzo[f]azulen-6-yl}acetic acid] gave an IC50 in assay [1] of 19.6 nM.

As for `CN(C)CC/C=C1\c2cc(CCC(=O)O)ccc2OCc2sccc21` [Compound 56, (E)-3-[4-(3-Dimethylaminopropylidene)-4,10-dihydro-9-oxa-1-thiabenzo[f]azulen-6-yl]propionic acid hydrochloride], the IC50 in assay [1] stood at 29 nM.

With `O=C(O)Cc1ccc2c(c1)/C(=C\CCN1CCC(=O)CC1)c1sccc1CO2` [Compound 62, (E)-{4-[3-(4-Oxopiperidin-1-yl)propylidene]-4,10-dihydro-9-oxa-3-thiabenzo[f]azulen-6-yl}acetic acid], the IC50 in assay [1] is 60.5 nM.

As to `CN(C)CC/C=C1\c2cc(CC(=O)O)ccc2CCc2ccsc21` [Compound 64, (E)-[4-(3-Dimethylaminopropylidene)-9,10-dihydro-4H-3-thiabenzo[f]azulen-6-yl]acetic acid], the IC50 in assay [1] worked out at 8.56 nM.

For `CN(C)CC/C=C1/c2cc(CC(=O)O)ccc2CCc2ccsc21` [Compound 65, (Z)-[4-(3-Dimethylaminopropylidene)-9,10-dihydro-4H-3-thiabenzo[f]azulen-6-yl]acetic acid hydrochloride], the IC50 in assay [1] was 14 nM.

Regarding `O=C(O)Cc1ccc2c(c1)/C(=C\CCN1CCC(N3CCCCC3)CC1)c1sccc1CO2` [Compound 66, (E)-{4-[3-([1,4′]Bipiperidin-1′-yl)propylidene]-4,10-dihydro-9-oxa-3-thiabenzo[f]azulen-6-yl}acetic acid diformate], the IC50 in assay [1] is 31.2 nM.

On to `O=C(O)Cc1ccc2c(c1)C(=CCCN1CCSCC1)c1sccc1CO2` [Compound 68, (E,Z)-{4-[3-(Thiomorpholin-4-yl)propylidene]-4,10-dihydro-9-oxa-3-thiabenzo[f]azulen-6-yl}acetic acid], for which the IC50 in assay [1] was found to be 45.2 nM.

In turn, `CC(C)(C(=O)O)c1cc2c(s1)CCc1ccccc1/C2=C\CCN1CCCC1` [Compound 69, (E,Z)-2-Methyl-2-{4-[3-(pyrrolidin-1-yl)propylidene]-9,10-dihydro-4H-1-thiabenzo[f]azulen-2-yl}propionic acid] had an IC50 in assay [1] of 53.8 nM.

For `CN1CCC(=C2c3ccccc3CC(=O)c3sccc32)CC1` [Ketotifen, reference compound], the ED50 in assay [2] (read-out: ED50) came to 0.54 mg/kg.
